Results: patent publication US20040063695A1, “Cystic fibrosis transmembrane conductance regulator protein inhibitors and uses thereof” (priority 2002, published 2004)
Entries after “also recorded” stand apart in the source; their conditions may differ. Like-named read-outs stand apart in the source and are kept apart here.

Assays:
[1] = target: T1, human wildtype CFTR (Homo sapiens, UniProt P13569); assay: YFP fluorescence assay of CFTR-mediated I− transport in FRT cells; format: cell-based; conditions: relative to CFTRinh-172 = 1.0
T1 construct: expressed in transfected cells; host or cells: Fischer rat thyroid (FRT) cells, stably transfected, co-expressing YFP-H148Q

[2] = tested on: Calcium-sensitive Cl− channels; assay: UTP-stimulated Ca2+-dependent Cl− secretion, short-circuit current in human bronchial epithelial cells; format: cell-based
[3] = tested on: Volume-sensitive Cl− channels; assay: Volume-activated Cl− current, whole-cell patch clamp on FRT cells; format: cell-based, rat; conditions: 5 μM; 250 mosM/kg hypotonic solution
Text: FIG. 4B is a graphical representation of volume-activated Cl^− current (hypotonic 250 mosM/kg H2O) measured in whole-cell patch clamp experiments on FRT cells.

[4] = target: T2, water channel (AQP1) (Homo sapiens, UniProt P29972); assay: Additional specificity study: water channel; conditions: 5 μM
T2 sequence (P29972 1-269): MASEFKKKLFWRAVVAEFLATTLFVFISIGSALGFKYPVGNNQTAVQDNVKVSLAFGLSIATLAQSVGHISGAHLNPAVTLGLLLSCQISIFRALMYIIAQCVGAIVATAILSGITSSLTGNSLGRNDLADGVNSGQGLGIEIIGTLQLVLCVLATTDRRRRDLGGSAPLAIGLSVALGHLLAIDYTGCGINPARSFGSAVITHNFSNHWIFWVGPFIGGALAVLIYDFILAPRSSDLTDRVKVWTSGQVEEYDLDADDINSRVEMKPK

[5] = target: T3, urea transporter (UT-B) (Homo sapiens, UniProt Q13336); assay: Additional specificity study: urea transporter; conditions: 5 μM
T3 sequence (Q13336 1-389): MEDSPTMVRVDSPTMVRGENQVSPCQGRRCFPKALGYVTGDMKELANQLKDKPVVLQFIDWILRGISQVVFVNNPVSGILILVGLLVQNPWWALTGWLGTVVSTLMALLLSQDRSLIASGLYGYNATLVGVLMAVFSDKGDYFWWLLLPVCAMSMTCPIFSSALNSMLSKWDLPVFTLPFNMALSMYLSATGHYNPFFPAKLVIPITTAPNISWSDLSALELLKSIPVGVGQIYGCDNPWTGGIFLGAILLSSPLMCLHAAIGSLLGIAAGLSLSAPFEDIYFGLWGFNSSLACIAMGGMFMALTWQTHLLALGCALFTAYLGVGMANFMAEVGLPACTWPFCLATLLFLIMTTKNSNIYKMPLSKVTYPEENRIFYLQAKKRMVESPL

[6] = target: T4, Na+/H+ exchanger (NEE3) (Homo sapiens, UniProt P48764); assay: Additional specificity study: Na+/H+ exchanger; conditions: 5 μM
T4 sequence (P48764 26-834): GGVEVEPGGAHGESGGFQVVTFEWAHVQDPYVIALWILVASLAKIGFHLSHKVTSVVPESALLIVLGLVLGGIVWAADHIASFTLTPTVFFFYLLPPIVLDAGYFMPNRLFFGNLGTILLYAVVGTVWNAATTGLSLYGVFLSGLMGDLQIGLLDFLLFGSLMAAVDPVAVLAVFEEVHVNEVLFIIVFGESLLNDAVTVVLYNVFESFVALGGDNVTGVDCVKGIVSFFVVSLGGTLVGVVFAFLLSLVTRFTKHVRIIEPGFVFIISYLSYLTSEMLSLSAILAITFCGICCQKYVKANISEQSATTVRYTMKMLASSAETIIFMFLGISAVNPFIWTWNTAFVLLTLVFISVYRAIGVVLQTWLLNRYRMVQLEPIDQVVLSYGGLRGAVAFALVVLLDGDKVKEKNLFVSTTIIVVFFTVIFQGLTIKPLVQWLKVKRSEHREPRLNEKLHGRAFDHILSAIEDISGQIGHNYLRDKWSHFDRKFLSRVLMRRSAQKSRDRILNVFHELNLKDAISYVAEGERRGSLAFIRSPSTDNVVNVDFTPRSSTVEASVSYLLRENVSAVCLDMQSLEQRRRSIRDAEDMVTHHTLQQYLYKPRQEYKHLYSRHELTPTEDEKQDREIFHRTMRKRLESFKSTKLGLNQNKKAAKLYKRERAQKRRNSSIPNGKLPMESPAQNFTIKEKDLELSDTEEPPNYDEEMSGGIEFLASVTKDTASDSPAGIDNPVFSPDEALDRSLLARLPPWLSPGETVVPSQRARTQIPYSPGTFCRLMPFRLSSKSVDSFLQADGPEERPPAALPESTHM

[7] = target: T5, Cl−/HCO3− exchanger (AEI) (Homo sapiens, UniProt P02730); assay: Additional specificity study: Cl−/HCO3− exchanger; conditions: 5 μM
T5 sequence (P02730 1-911): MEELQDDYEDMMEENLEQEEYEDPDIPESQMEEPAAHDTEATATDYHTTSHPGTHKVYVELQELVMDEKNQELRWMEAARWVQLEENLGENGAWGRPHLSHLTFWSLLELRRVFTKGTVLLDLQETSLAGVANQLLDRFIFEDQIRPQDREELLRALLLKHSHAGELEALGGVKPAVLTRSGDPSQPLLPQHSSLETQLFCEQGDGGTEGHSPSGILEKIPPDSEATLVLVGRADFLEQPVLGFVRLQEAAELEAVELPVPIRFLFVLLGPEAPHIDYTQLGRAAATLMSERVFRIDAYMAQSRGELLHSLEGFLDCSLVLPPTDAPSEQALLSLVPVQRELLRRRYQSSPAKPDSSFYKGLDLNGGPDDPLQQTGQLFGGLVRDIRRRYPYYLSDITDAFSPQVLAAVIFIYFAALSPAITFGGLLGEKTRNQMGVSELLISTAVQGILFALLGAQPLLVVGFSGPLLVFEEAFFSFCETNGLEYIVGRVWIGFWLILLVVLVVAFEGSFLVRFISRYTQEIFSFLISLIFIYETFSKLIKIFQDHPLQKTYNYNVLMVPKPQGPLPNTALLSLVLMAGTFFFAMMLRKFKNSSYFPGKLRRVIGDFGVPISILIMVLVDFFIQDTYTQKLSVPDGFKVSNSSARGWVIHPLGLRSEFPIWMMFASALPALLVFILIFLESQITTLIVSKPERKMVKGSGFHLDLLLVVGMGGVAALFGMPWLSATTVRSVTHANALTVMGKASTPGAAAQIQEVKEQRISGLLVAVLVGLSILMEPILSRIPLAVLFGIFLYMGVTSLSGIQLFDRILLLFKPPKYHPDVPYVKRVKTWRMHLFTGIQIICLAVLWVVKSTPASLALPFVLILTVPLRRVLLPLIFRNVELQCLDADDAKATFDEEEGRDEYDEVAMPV

[8] = Animal toxicity in mice; format: in vivo
[9] = tested on: cholera toxin-induced intestinal fluid secretion; parameters: species or system mice; conditions: mouse, in vivo, ip
[10] = target: T6, CFTR Cl− channel (Rattus norvegicus, UniProt P34158); assay: Short-circuit current in isolated rat colonic mucosa; conditions: amiloride, forskolin 20 μM
T6 construct: from tissue; host or cells: rat colon mucosa strips
T6 sequence (P34158 whole entry): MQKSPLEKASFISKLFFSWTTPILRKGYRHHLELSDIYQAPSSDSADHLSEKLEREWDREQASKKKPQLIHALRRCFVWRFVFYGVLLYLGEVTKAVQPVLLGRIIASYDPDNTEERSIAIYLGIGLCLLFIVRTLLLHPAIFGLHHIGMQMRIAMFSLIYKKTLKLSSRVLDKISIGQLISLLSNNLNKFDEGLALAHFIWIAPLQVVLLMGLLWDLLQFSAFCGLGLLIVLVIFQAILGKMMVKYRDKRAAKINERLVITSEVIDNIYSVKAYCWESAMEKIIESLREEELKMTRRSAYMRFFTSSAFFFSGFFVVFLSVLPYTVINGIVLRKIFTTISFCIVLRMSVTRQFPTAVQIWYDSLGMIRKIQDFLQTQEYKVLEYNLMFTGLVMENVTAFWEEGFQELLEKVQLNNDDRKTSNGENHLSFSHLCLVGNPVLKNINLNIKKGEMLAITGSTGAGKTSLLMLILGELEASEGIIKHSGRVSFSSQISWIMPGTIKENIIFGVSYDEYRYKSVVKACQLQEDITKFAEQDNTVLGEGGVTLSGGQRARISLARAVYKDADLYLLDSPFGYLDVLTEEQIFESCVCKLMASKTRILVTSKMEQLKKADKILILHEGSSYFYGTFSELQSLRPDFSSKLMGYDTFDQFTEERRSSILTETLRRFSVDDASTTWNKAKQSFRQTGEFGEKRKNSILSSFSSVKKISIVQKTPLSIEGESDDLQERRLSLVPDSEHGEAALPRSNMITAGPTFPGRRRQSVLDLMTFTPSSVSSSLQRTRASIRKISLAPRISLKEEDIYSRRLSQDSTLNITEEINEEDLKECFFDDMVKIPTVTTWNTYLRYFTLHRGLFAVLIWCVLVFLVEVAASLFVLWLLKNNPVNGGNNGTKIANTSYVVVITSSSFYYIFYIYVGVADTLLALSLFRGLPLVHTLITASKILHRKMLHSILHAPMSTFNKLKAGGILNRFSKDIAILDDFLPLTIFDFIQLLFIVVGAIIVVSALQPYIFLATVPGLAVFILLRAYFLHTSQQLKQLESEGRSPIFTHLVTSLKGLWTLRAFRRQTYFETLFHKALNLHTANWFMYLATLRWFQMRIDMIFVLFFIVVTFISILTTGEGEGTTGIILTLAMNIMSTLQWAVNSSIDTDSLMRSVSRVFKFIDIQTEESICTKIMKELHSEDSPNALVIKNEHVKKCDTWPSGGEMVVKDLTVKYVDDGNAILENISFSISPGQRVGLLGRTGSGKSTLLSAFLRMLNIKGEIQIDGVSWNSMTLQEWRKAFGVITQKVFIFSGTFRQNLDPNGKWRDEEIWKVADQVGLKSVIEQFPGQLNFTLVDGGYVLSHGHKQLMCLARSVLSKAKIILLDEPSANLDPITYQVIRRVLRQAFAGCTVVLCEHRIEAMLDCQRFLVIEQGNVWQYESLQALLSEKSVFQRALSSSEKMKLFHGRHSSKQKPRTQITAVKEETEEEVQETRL

[11] = target: MDR-1 (Homo sapiens, UniProt P08183)
MDR-1, sequence (P08183 whole entry): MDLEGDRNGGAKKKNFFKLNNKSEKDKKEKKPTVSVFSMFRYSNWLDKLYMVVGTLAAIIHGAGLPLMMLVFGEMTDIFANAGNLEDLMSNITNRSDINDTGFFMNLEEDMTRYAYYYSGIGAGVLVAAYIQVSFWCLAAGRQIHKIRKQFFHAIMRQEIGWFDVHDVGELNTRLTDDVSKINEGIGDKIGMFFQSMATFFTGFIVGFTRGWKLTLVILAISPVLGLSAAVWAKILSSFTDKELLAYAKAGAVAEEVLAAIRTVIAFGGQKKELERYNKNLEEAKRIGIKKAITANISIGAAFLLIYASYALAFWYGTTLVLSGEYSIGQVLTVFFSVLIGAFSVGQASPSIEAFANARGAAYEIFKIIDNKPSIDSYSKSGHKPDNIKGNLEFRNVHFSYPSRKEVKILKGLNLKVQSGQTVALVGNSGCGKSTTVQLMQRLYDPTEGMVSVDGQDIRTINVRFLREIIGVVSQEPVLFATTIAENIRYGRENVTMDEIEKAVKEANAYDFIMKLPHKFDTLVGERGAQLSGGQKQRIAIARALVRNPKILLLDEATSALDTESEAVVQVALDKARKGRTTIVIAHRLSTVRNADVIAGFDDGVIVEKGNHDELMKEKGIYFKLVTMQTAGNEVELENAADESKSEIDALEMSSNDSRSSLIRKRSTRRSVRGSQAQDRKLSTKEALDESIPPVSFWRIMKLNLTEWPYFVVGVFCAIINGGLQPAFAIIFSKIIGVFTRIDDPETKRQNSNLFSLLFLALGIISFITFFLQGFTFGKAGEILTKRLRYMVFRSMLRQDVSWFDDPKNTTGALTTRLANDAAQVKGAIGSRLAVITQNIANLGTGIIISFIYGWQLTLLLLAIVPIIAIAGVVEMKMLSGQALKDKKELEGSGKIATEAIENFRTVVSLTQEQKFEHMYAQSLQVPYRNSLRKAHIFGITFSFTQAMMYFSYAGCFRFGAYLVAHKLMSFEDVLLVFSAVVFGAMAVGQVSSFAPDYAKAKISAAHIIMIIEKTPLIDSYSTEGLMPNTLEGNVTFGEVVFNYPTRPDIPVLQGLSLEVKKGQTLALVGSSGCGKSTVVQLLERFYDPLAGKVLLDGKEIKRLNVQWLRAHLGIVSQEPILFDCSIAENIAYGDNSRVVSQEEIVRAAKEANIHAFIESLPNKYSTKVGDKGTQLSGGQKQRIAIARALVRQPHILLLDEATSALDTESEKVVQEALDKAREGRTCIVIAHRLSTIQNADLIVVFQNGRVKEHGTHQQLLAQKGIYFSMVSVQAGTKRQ

[12] = tested on: phosphatase activity; assay: Phosphatase assay; conditions: 5 μM
[13] = tested on: cellular cAMP production; assay: Intracellular cAMP assay in FRT cells
[14] = tested on: FRT cells; assay: Cell toxicity by the dihydrorhodamine method; conditions: after 24 hours, dihydrorhodamine assay
[15] = mice, intraperitoneal 1000 μg/kg daily for 7 days

In the case of O=C(O)c1ccccc1C=C1SC(=S)N(c2ccccc2C(F)(F)F)C1=O [3, 2, 3-[(a-trifluoromethyl)phenyl]-5-[(b-carboxyphenyl)methylene]-2-thioxo-4-thiazolidinone], the “relative potency (CFTR inhibitory activity)” value [1] was 0.74.

With O=C(O)c1ccccc1C=C1SC(=S)N(c2ccccc2C(F)(F)F)C1=O [4, 3, 3-[(a-trifluoromethyl)phenyl]-5-[(b-carboxyphenyl)methylene]-2-thioxo-4-thiazolidinone] the “relative potency (CFTR inhibitory activity)” value [1] was 0.64.

For O=C1S/C(=C\c2ccc(O)c(O)c2)C(=S)N1c1cccc(C(F)(F)F)c1 [CFTRinh-185, 3-[(3-trifluoromethyl)phenyl]-5-[(3,4-dihydroxyphenyl)methylene]-2-thioxo-4-thiazolidinone], the “relative potency (CFTR inhibitory activity)” value [1] was 0.2.

With “3-[(3-trifluoromethyl)phenyl]-5-[(4-carboxyphenyl)methylene]-2-thioxo-4-thiazolidinone [CFTRinh-172]” the “effect on Ca2+ activated Cl− secretion” value ([2]; 5 μM, UTP 100 μM apical) was “did not inhibit”, the “maximal UTP-dependent short-circuit current” value ([2]; in the presence of 5 μM inhibitor (SE, n=4)) was 10.0±0.2 μA/cm^2 and the “effect on volume-activated Cl− currents” value [3] was “did not block”. The “block of water channel (AQP1)” value [4] was “did not block”, the “block of urea transporter (UT-B)” value [5] was “did not block” and the “block of Na+/H+ exchanger (NEE3)” value [6] was “did not block”. For the same molecule, the “block of Cl−/HCO3− exchanger (AEI)” value [7] was “did not block”, the “food and water intake” value [8, 15] was “not diminished” and the overt toxicity [8, 15] was “did not cause overt toxicity”. The “serum electrolyte concentrations, glucose, liver function indices, serum creatinine, amylase and hematocrit” value [8, 15] was “not changed”, the overt toxicity ([8]; single systemic dose 10 mg/kg) was “did not cause overt toxicity” and the “fluid accumulation in cholera toxin-treated ileal loops” value [9] was “effectively prevented fluid accumulation; also recorded: significantly reduced fluid secretion to that in saline control loops”. The “reduction of short-circuit current” value ([10]; 5 μM in mucosal solution alone) was greater than 80%, the “efficacy of short-circuit current inhibition, mucosal vs. serosal addition” value [10] was “greater efficacy” and the vincristine accumulation ([11]; 5 μM) was “did not affect vincristine accumulation”. The “effect on phosphatase activity” value [12] was “did not affect”, the “effect on cellular cAMP production” value ([13]; 5 μM) was “did not affect” and the cAMP content ([13]; 30 min after 20 μM forskolin, + inhibitor (n=3)) was 1140±50 fmol/well. The “concentrations non-toxic to FRT cells” value [14] was “up to 100 μM”.

For O=C(O)c1ccccc1C=C1SC(=S)N(c2ccccc2C(F)(F)F)C1=O [2, 3, 3-[(a-trifluoromethyl)phenyl]-5-[(b-carboxyphenyl)methylene]-2-thioxo-4-thiazolidinone], the “relative potency (CFTR inhibitory activity)” value [1] was 0.70.

With O=C(O)c1ccccc1C=C1SC(=S)N(c2ccccc2C(F)(F)F)C1=O [4, 4, 3-[(a-trifluoromethyl)phenyl]-5-[(b-carboxyphenyl)methylene]-2-thioxo-4-thiazolidinone] the “relative potency (CFTR inhibitory activity)” value [1] was 0.56.

With COc1ccc(CCN(C)CCCC(C#N)(c2ccc(OC)c(OC)c2)C(C)C)cc1OC (stereo not drawn) [verapamil, reference compound] the vincristine accumulation ([11]; 100 μM) was “strongly increased”.

With O=C(O)c1ccccc1C=C1SC(=S)N(c2ccccc2C(F)(F)F)C1=O [2, 4, 3-[(a-trifluoromethyl)phenyl]-5-[(b-carboxyphenyl)methylene]-2-thioxo-4-thiazolidinone] the “relative potency (CFTR inhibitory activity)” value [1] was 0.66.

For O=C(O)Oc1ccc(/C=C2\SC(=O)N(c3cccc(C(F)(F)F)c3)C2=S)cc1 [CFTRinh-029, 3-[(3-trifluoromethyl)phenyl]-5-[(4-oxycarboxyphenyl)methylene]-2-thioxo-4-thiazolidinone], the “relative potency (CFTR inhibitory activity)” value [1] was 0.3.

With O=C(O)c1ccccc1C=C1SC(=S)N(c2ccccc2C(F)(F)F)C1=O [a=2, b=2, 3-[(a-trifluoromethyl)phenyl]-5-[(b-carboxyphenyl)methylene]-2-thioxo-4-thiazolidinone] the “relative potency (CFTR inhibitory activity)” value [1] was 0.69.

With O=C(O)c1ccccc1C=C1SC(=S)N(c2ccccc2C(F)(F)F)C1=O [3, 3, 3-[(a-trifluoromethyl)phenyl]-5-[(b-carboxyphenyl)methylene]-2-thioxo-4-thiazolidinone] the “relative potency (CFTR inhibitory activity)” value [1] was 0.90.

For O=C(O)c1ccccc1C=C1SC(=S)N(c2ccccc2C(F)(F)F)C1=O [4, 2, 3-[(a-trifluoromethyl)phenyl]-5-[(b-carboxyphenyl)methylene]-2-thioxo-4-thiazolidinone], the “relative potency (CFTR inhibitory activity)” value [1] was 0.67.
